Results as given in US8969088B2, “Substrate mimicking intercellular lipids in stratum corneum and method of evaluating skin roughening using the same” (Shiseido Company, Ltd., priority 2008, dated 2015).

Test: Myelin figure formation on exposing the lipids-mimicking substrate to surfactant (microscopy)
Conditions: aqueous solution 5.0 mg/cm^3, 25° C., 6 hours, lipid membrane 50 μm
Protocol: Multiple substrates mimicking intercellular lipids in stratum corneum, each having a lipid membrane controlled to a thickness of 50 μm were exposed to an aqueous solution (5.0 mg/cm^3) of SDS (99.0%) (Nacalai Tesque, Inc., Kyoto, Japan) at a temperature of 25° C. for 6 hours. Each exposed substrate was rinsed with a small amount of water and dried, and used for the following evaluation test.
Upon examination of surfactants other than SDS, a myelin figure was formed with some and not formed with others. For each of the examined surfactants, the shortest distance from the edge of the substrate to the tip of the myelin figure (hereunder referred to as “myelin figure formation distance”) was measured.

## CCCCCCCCCCCCOS(=O)(=O)[O-].[Na+] [SDS]
  myelin figure formation: formation of a myelin figure within a constant range
